Experiments:
[1] = test system: rabbit corneal epithelial cell; assay: Test Example 2: increase in cell number, cultured rabbit corneal epithelial cell, 120 hours (Cell Counting Kit-8); assay type: cell-based; settings: no addition group = 100%, average ± standard deviation, N = 5
Method: A male rabbit (Japanese white, weight: about 1.5 kg, […] LABES Co., Ltd.) was used. The experimental animal was used according to the International Guiding Principles for Biomedical Research Involving Animals.
A rabbit corneal epithelial cell was prepared using the same process as that of (Test example 1).
As the test substance, the following compounds were used. • PPARδ agonist: L-165041 (Sigma-Aldrich) and GW-501516 (Alexis)
For studying the effect of promoting cell proliferation by each test substance, a culture medium prepared by removing a mouse-derived epithelial growth factor (mEGF) attached to RCGM2, from RCGM2, was used as a basal medium, while as a positive control for confirming the effect of promoting cell proliferation, a medium with an mEGF added thereto (basal medium+10 ng/mL mEGF) was used according to instructions of an RCGM2 preparation protocol.
Collagen treatment of the culture dish was performed using the same process as that of (Test Example1).
In the test, a rabbit corneal epithelial cell which had been cultured to subconfluent in a culture dish having a diameter of 10 cm was used. After the culture medium was removed, the bottom of the culture dish was washed two times using D-PBS, to this was added 1 mL of trypsin-EDTA, this was incubated at 37° C. for 5 minutes and thereby, the cell was peeled from the bottom of the culture dish. After incubation, 9 mL of MEM containing 10% FBS was added to the culture dish to stop the enzymatic reaction, and this was subjected to centrifugation at room temperature and 1,500 rpm for 5 minutes to obtain a corneal epithelial cell layer. To the resulting cell was added an appropriate amount of RCGM2 to a cell concentration of 1×10^5 cells/mL to suspend the cell. Each 64 μL of this cell suspension was dispensed in each well at the cell number per bottom area (0.32 cm^2) of the collagen-treated 96-well culture dish for tissue culture of […]. […] After 24 hours from cell seeding, the culture medium was discarded, and each 100 μL of the following culture media were freshly dispensed into each well of the culture dish. • [1] Only basal medium (no addition group) • [2] Basal medium+mEGF (final concentration: 10 ng/mL; positive control group) • [3] Basal medium+L-165041 (final concentration: 0.1 μM and 1 μM) • [4] Basal medium+GW-501516 (final concentration: 0.01 μM and 0.1 μM)
The culture supernatant of each well was removed every 48 hours from exchange of the culture medium containing a test substance, and each 100 μL of the freshly prepared culture medium was dispensed into each well.

[2] = test system: normal human corneal epithelial cell; assay: Test Example 5: increase in cell number, normal human corneal epithelial cell, 24 hours (Cell Counting Kit-8); assay type: cell-based; settings: no addition group = 100%, average ± standard deviation, N = 3 to 4
Method: (§1) A normal human corneal epithelial cell (KURABO) was used.
As the test substance, the following compounds were used. PPARδ agonist: L-165041 (Sigma-Aldrich), GW-501516 (Alexis)
In addition, as a positive control for confirming the cell proliferation promoting effect, a medium in which a mouse-derived epithelial growth factor (mEGF) contained in an HCGS proliferation additive set (KURABO) was added to a basal medium (basal medium+1 ng/mL mEGF) was used.
This cell suspension was seeded on a fibronectin-coated multiwell plate (24 well, BECTON DICKINSON) so that the cell number became 2×10^4 cells/500 μL/well (since the bottom area is 2 cm^2, the number is 1×10^4 cells/cm^2).
Further, 24 hours thereafter, the culture medium was exchanged with each 400 μL of the following culture media. • [1] Only basal medium (no addition group) • [2] Basal medium+mEGF (final concentration: 1 ng/mL; positive control group) • [3] Basal medium+L-165041 (final concentration: 0.01 μM and 0.1 μM) • [4] Basal medium+GW-501516 (final concentration: 0.001 μM and 0.01 μM)

[3] = test system: normal human corneal epithelial cell; assay: Test Example 6: increase in cell number, normal human corneal epithelial cell, 48 hours (Cell Counting Kit-8); assay type: cell-based; settings: 10^−8 M, no addition group = 100%, average ± standard deviation, N = 4 to 5
Method: as §1
As the test substance, the following compounds were used. • PPARδ Agonist: GW-501516 (Alexis), GW-0742 (Sigma-Aldrich)
Only basal medium (no addition group) • [2] Basal medium+GW-501516 (final concentration: 0.01 μM) • [3] Basal medium+GW-0742 (final concentration: 0.01 μM)

[4] = test system: monkey meibomian gland epithelial cell; assay: Test Example 8: increase in number of monkey meibomian gland epithelial cells (Cell Counting Kit-8); assay type: cell-based; settings: 3 x 48 hours; for Cell proliferation (%): no addition group = 100%, average ± standard deviation, N = 5
From the text: For studying the effect of promoting cell proliferation by each test substance, a culture medium prepared by removing the supplement attached to DK-SFM, from DK-SFM, was used as a basal medium, while as a positive control for confirming the cell proliferation promoting effect, a culture medium with the supplement added thereto (basal medium+supplement) was used according to instructions of an DK-SFM preparation protocol. […] In the test, a monkey meibomian gland epithelial cell which had been cultured to subconfluent, suspended in a cell banker (Nippon Zenyaku Kogyo Co., Ltd.), and cryopreserved in liquid nitrogen was used. The cell which had been cryopreserved was thawed, and transferred to a 50 mL centrifuge tube and a 10-fold amount of DK-SFM was added thereto. […] Each 64 μL of this cell suspension was dispensed into each well so that the cell number per bottom area (0.32 cm^2) of the collagen-treated 96-well culture dish for tissue culture became 4×10^4 cells/cm^2. […] After 48 hours from initial culture medium exchange, the culture medium was exchanged with a freshly prepared culture medium of each of [1] to [4]. Further, after 48 hours therefrom, the culture medium was exchanged again with a freshly prepared culture medium of each of [1] to [4].

[5] = test system: corneal epithelial wound; assay: Test Example 9: healing of corneal epithelial wound after corneal epithelium scraping, eyedrop; assay type: in vivo, rabbit; settings: 0.05% eyedrop; for ratio (%) of remaining corneal epithelial defect: initial value = 100%, average ± standard deviation, N = 4
From the text: A male rabbit (Japanese white, […] LABES Co., Ltd.) was used. The experimental animal was used according to the International Guiding Principles for Biomedical Research Involving Animals.
As the test substance, a PPARδ agonist GW-501516 (Alexis Biochemicals) was used. A solution in which GW-501516 was suspended in the following vehicle to 0.05% was used as an eyedrop solution.
As a control for the test substance administration group, the aforementioned vehicle administration group containing no drug was set.
After the animal was subjected to systemic anesthesia by intramuscular injection (0.9 mL/kg) with a selactar (2% xylazine: Bayer): ketalar (5% ketamine: Sankyo)=0.5:1 mixed solution, an oxybuprocaine hydrochloride eyedrop solution (Benoxil eyedrop solution 0.4%; Santen Pharmaceutical Co., Ltd.) was administered, and eyeballs were exposed. A mark having a diameter of 6 mm was stamped on a corneal epithelium at a corneal central part using a trephine having a diameter of 6 mm, and a whole corneal epithelial layer within a stamped circumference was scraped using a handy rooter under a stereomicroscope. After scraping, a corneal surface was washed using physiological saline (Otsuka Pharmaceutical Factory Inc.), and eyeballs were returned into the orbit to complete the corneal epithelial scraping treatment.
A test substance eyedrop solution or an eyedrop solution vehicle was administered to treated eyes at 50 μL per once using a micropipette two times a day on the corneal epithelium scraping day and, on the following day and thereafter, four times a day until completion of the test.
At the time point at which corneal epithelium scraping of both eyes of all individuals was completed was defined as the test initiation time (0 hour) and, by quantitating the corneal epithelial defect area at 24, 38 and 48 hours thereafter, restoration of a corneal epithelium was assessed. That is, at each time point, 10 μL of a 0.1% fluorescein sodium (Wako Pure Chemical Industries, Ltd.) solution was administered to treated eyes, a photograph of an anterior ocular segment of the animal was immediately taken using a slit lamp equipped with a cobalt filter and thereby, a stained corneal epithelial defect region was recorded. A developed photograph was stored as a digital image in a computer, and an area of the stained corneal epithelial defect part was measured using image analysis software (Image-Pro Plus).
Regarding the corneal epithelial defect area measured at each time point, a value for each individual was calculated, assuming that its initial value was 100%, and this was adopted as a ratio of the remaining corneal epithelial defect.

Cc1cc(SCc2sc(-c3ccc(C(F)(F)F)cc3)nc2C)ccc1OCC(=O)O [GW-501516, (2-methyl-4-(((4-methyl-2-(4-(trifluoromethyl)phenyl)-5-thiazolyl)methyl)thio)phenoxy)acetic acid]
Cell proliferation (%) ([1]; 10^−7 M): 213.2 ± 34.0%
Cell proliferation (%) ([1]; 10^−8 M): 223.9 ± 24.1%
Cell proliferation (%) ([2]; 10^−8 M): 125.7 ± 2.3%
Cell proliferation (%) ([2]; 10^−9 M): 133.1 ± 3.7%
Cell proliferation (%) [3]: 129.2 ± 7.5%
cell proliferation compared to the no addition group (in words) ([4]; 10^−7 M): significantly higher than in the no addition group
Cell proliferation (%) ([4]; 10^−7 M): 156.1 ± 18.9%
Cell proliferation (%) ([4]; 10^−8 M): 133.3 ± 7.4%
ratio (%) of remaining corneal epithelial defect ([5]; 0 hour (initial value)): 100.0 ± 6.5%
ratio of the corneal epithelial defect compared to vehicle (in words) ([5]; 24 hours and 38 hours after corneal epithelium scraping): significantly decreased
ratio (%) of remaining corneal epithelial defect ([5]; 24 hours later, 50 μL): 25.3 ± 3.1 %
ratio (%) of remaining corneal epithelial defect ([5]; 38 hours later, 50 μL): 0.2 ± 0.2 %
corneal epithelial defect (in words) ([5]; after 48 hours, all individuals (vehicle group too)): disappeared in all individuals

— patent US9096538B2, “Pharmaceutical comprising PPAR agonist” (Senju Pharmaceutical Co., Ltd., priority 2005, dated 2015)
